Source: ChEMBL document CHEMBL4507298 (2021)

Columns and labels:
Conditions in all cases: Compound concentration 1000.0 nM
[1] = target: Serine/threonine-protein kinase LATS1 (Homo sapiens) (UniProt O95835)
[2] = target: Myosin light chain kinase, smooth muscle (Homo sapiens) (UniProt Q15746)
[3] = target: Ribosomal protein S6 kinase alpha-3 (Homo sapiens) (UniProt P51812)
[4] = target: Serine/threonine-protein kinase WNK1 (Homo sapiens) (UniProt Q9H4A3)
[5] = target: Serine/threonine-protein kinase WNK3 (Homo sapiens) (UniProt Q9BYP7)
Sequence of Serine/threonine-protein kinase WNK3 (Homo sapiens) (Q9BYP7 whole entry): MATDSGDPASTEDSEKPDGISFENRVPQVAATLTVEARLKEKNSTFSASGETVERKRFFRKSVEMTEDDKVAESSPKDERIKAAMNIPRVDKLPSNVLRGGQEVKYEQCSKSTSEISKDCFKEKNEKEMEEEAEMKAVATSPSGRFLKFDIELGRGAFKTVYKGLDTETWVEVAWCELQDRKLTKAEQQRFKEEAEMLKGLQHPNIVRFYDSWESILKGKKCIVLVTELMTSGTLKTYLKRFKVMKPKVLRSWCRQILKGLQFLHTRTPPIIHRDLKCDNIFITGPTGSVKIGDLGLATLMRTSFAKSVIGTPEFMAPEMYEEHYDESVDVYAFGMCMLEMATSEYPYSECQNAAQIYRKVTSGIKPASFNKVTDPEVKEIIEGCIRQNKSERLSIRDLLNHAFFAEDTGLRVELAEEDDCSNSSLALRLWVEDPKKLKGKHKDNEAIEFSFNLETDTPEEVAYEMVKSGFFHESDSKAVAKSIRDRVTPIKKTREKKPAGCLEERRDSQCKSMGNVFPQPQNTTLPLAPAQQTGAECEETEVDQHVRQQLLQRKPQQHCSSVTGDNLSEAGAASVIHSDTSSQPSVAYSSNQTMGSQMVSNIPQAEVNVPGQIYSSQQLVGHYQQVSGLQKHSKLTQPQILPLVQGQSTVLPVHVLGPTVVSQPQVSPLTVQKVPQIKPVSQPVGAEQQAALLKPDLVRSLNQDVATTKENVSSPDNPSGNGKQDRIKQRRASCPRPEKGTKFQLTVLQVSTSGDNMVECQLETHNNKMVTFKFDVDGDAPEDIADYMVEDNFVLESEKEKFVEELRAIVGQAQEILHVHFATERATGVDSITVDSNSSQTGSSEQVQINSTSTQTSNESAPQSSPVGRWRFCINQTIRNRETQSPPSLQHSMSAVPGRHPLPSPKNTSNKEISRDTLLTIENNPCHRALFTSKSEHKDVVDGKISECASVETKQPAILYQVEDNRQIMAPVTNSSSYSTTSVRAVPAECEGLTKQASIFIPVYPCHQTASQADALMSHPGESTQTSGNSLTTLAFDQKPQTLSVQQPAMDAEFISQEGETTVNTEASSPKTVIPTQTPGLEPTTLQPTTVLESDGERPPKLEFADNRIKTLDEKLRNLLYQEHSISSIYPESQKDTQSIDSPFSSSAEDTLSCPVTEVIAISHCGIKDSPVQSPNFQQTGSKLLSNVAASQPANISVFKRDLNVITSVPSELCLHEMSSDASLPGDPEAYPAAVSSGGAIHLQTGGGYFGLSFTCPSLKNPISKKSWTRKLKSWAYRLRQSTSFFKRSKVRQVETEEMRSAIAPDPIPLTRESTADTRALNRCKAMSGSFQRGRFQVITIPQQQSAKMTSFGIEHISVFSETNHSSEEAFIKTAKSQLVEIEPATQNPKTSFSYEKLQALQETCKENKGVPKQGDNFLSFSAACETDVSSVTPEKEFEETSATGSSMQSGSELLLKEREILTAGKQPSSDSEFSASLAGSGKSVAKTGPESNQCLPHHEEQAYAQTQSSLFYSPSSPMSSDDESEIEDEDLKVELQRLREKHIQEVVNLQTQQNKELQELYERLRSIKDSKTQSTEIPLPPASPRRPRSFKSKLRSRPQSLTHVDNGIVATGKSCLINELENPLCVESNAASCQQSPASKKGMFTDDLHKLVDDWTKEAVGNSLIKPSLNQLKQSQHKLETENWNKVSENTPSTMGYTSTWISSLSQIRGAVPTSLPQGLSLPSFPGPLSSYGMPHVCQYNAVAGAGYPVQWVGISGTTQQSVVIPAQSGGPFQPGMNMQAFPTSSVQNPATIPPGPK

[6] = target: Mitogen-activated protein kinase kinase kinase 19 (Homo sapiens) (UniProt Q56UN5)
Sequence of Mitogen-activated protein kinase kinase kinase 19 (Homo sapiens) (Q56UN5 whole entry): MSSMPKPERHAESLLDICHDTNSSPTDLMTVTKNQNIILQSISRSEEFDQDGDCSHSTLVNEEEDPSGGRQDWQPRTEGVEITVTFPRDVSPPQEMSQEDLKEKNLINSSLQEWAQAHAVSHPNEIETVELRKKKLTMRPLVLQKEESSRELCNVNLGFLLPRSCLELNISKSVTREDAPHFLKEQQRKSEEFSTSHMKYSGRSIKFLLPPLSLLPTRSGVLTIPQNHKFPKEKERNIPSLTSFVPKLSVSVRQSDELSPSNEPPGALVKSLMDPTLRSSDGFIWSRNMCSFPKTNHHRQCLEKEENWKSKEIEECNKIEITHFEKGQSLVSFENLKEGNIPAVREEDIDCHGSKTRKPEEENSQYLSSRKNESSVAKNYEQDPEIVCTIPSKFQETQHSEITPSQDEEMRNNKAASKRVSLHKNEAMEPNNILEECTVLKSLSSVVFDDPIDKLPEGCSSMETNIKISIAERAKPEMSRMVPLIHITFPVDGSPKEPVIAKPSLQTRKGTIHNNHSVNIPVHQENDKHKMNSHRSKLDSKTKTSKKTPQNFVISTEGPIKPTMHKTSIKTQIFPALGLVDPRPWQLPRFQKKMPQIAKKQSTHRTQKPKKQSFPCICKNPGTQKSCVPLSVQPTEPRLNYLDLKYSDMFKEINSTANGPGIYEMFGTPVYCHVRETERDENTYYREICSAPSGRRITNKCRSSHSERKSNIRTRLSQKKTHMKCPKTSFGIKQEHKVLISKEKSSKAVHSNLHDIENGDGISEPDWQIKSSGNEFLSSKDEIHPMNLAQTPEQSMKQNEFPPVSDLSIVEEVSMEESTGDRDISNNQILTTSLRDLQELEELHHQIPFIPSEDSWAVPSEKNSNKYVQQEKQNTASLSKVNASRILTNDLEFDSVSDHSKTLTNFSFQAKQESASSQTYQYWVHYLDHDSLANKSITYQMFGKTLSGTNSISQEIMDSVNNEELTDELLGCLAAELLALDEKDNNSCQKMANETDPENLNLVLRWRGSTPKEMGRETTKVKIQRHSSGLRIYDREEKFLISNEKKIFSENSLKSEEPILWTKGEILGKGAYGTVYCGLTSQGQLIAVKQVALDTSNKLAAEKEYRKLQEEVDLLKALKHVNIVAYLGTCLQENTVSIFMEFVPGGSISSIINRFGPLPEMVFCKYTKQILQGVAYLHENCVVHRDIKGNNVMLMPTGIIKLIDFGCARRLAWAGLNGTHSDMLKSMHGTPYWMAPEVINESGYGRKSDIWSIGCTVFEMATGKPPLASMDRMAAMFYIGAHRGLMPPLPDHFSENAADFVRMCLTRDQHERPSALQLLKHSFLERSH

Measured: residual activity

Sequence of Myosin light chain kinase, smooth muscle (Homo sapiens) (Q15746 whole entry): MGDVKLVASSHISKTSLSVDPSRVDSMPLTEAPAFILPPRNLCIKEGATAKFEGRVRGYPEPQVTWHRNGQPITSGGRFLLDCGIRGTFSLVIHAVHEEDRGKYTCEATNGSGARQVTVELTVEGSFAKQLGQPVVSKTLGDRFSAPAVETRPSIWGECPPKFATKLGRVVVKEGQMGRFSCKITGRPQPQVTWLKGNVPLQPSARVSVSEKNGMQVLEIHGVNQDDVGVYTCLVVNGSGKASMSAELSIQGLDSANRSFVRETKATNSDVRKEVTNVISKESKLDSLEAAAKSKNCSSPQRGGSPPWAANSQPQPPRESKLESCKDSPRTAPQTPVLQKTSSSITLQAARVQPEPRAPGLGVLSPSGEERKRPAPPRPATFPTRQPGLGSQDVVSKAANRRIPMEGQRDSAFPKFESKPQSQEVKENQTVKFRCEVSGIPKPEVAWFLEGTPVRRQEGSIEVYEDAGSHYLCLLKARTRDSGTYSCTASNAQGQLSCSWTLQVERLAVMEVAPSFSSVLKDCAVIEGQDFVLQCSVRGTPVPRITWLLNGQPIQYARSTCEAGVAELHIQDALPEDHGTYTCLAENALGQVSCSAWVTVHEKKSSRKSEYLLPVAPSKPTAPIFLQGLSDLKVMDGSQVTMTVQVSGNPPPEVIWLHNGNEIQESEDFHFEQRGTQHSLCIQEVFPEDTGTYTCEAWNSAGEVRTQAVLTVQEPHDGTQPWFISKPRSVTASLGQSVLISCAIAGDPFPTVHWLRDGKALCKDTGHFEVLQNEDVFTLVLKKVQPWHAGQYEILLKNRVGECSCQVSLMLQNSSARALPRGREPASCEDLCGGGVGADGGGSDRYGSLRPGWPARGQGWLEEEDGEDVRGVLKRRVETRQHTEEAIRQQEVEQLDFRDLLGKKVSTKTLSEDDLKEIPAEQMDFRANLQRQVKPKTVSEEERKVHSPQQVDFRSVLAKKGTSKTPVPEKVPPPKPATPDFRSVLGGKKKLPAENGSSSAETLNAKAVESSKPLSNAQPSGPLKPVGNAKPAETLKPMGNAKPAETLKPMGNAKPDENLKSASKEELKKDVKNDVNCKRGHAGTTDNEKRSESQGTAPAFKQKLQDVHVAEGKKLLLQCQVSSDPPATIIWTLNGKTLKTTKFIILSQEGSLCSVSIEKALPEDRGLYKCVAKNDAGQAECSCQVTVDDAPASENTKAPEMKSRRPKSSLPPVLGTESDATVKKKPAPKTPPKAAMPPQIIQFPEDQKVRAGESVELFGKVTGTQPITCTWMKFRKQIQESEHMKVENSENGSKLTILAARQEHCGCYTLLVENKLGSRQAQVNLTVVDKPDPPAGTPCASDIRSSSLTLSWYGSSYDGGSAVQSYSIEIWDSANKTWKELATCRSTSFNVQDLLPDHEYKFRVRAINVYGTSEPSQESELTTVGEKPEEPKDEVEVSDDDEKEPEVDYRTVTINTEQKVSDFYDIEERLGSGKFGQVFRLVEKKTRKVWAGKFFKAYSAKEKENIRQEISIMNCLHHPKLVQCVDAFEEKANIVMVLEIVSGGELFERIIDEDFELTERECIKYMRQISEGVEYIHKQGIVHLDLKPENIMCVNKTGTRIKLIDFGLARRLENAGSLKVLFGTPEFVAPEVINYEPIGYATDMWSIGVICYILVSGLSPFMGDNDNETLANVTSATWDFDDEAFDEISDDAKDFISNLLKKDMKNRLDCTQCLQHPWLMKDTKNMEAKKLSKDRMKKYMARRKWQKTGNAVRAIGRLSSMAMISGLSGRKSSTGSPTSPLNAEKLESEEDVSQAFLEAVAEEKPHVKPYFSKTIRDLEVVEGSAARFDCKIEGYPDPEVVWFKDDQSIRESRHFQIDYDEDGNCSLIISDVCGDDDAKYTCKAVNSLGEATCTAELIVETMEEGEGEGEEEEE

COc1ccc2cc(OCC3(C(=O)O)CN(C(=O)c4ccc(F)cc4)C3)ccc2c1 [PF-04418948]
inactive: [1] 87% | [2] 84% | [3] 85% | [4] 84% | [5] 93% | [6] 82%
